# Values quoted from earlier work in US20100047176A1, “Method and Kit for Testing Stress Effects in Living Organisms” (AARHUS UNIVERSITET, priority 2007, published 2010).
# How the values were obtained:
# [1] = at 25° C.
# [2] = tested on: fish and aquatic invertebrates; conditions: if it reaches water bodies
SMILES,water solubility [1],toxicity to fish / aquatic invertebrates [2]
O=C(O)CNCP(=O)(O)O [Glyphosate],11.6 mg/mL,–
CCC(CC)Nc1c([N+](=O)[O-])cc(C)c(C)c1[N+](=O)[O-] [Pendimethalin],–,toxic to fish
